Where “and” joins values, the source holds several entries; their conditions need not be identical. Equal values may be shown once.
How the values were obtained:
[1] = target: folate receptors (FR-α) of KB cells (Homo sapiens, UniProt P15328); details: competitive binding with 3H-folic acid, FR-α positive KB cells
[2] = system: rats with adjuvant-induced arthritis (AIA); assay: Adjuvant-induced arthritis (AIA) model; details: for Splenomagly (% increase in spleen weight relative to healthy rats) / % Inhibition in paw edema / % Weight loss: AIA rats; for % Weight loss: Day 24 relative to first day of treatment
Procedure: Female Lewis rats were fed a folate-deficient diet (Harlan Teklad, Indianapolis, Ind.) for 9-10 days prior to arthritis induction. The adjuvant-induced arthritis (AIA) was induced by intradermal inoculation (at the base of tail) of 0.5 mg of heat-killed Mycobacteria butyricum (BD Diagnostic Systems, Sparks, Md.) in 100 μL light mineral oil (Sigma). Ten days after arthritis induction, paw edema in rats was assessed using a modified arthritis scoring system: 0=no arthritis; 1=swelling in one type of joint; 2=swelling in two types of joint; 3=swelling in three types of joint; 4=swelling of the entire paw. A total score for each rat is calculated by summarizing the scores for each of the four paws, giving a maximum score of 16 for each rat. On Day 10 post arthritis induction, rats with a total arthritis score of ≥2 were removed from the study and the remaining rats were distributed evenly across the control and treatment groups (n=5 for all groups except that n=2-3 for healthy controls). All treatments started on Day 10 unless mentioned otherwise. […]
Rats with adjuvant arthritis were treated subcutaneously with EC0932 (250 nmol/kg) in the absence or presence of 500-fold excess of EC0923 (125 μmol/kg) on days 10, 13, 17, and 20 post arthritis induction. The animals in the healthy and arthritis control groups were left untreated. The arthritis scores and animal body weights were recorded three times a week (see FIG. 19A, B). At the completion of study (day 24), the rats were euthanized by CO2 asphyxiation and processed for paw and spleen weights (see FIG. 20A, B).
The rat adjuvant induced arthritis (AIA) model resembles the characteristics of RA in humans and has been widely used to study the impact of novel anti-inflammatory agents.

[3] = Plasma pharmacokinetics after a single s.c. dose of EC0746 or aminopterin
Procedure: Female Lewis rats with rounded tip jugular vein catheters (Harlan) were fed regular rodent diet and used in this study. The animals were given a single subcutaneous dose of EC0746 at 500 nmol/kg. Whole blood samples (300 μl) were collected from the animals at the following time points: 1 min, 10 min, 30 min, 1 h, 2 h, 3 h, 4 h, and 8 h after injection. The blood samples were placed into anti-coagulant tubes containing 1.7 mg/mL of K3-EDTA and 0.35 mg/mL of N-Maleoyl-beta-alanine (0.35 mg/mL). Plasma samples were obtained by centrifugation for 3 min at ˜2,000 g and stored at −80° C. The amount of EC0746 and its released base drugs (EC0470 & aminopterin) were determined by HPLC using the EC0746 injection solution as the standard (see FIG. 14). […] A similar method was used to determine the plasma pharmacokinetics of aminopterin (see FIG. 15).
Thus, the plasma concentrations of EC0746 and two primary metabolites, AMT and AMT hydrazide, were determined by LC/MS/MS after a single subcutaneous EC0746 administration. […] For comparison, the pharmacokinetics of subcutaneously dosed AMT (500 nmol/kg) was also examined (FIG. 33B).

[4] = Maximum tolerated dose (MTD) in healthy folate-deficient rats; assay type: in vivo
Procedure: Healthy rats were administered a subcutaneous injection of the indicated dose of aminopterin or EC0746 biweekly for 2 weeks; control animals, no treatment, 100 nmole/kg aminopterin, 50 nmole/kg aminopterin, 500 nmole/kg EC0746, or 2000 nmole/kg EC0746. The animals were weighed daily. See FIG. 16A, B. A dose of 0.1 μmol/kg of aminopterin in folate deficient rats is above the MTD; therefore, the projected MTD of EC0746 would be <0.5 μmol/kg based solely on ˜20% free drug release shown in the previous Example. However, the MTD of EC0746 is actually 2.0 μmol/kg, which is equivalent to 0.4 μmol/kg, or—8× higher than the MTD for free aminopterin. On a molar basis for total aminopterin, the MTD is 40× higher. The therapeutic index (MTD for healthy animals/ED50 for treatment of adjuvant-induced arthristis in female Lewis rats) for EC746 is about 9.5 (2000/210).
Since the toxicity of antifolates can be easily masked by rodent diets enriched with folate, healthy rats on a folate-deficient diet (Harlan) were used to determine the maximum-tolerated-dose levels (MTD) of EC0746, AMT and MTX. The animals were given biweekly injections of EC0746, AMT, and MTX for two weeks. The MTD dose was defined as the dose that had caused at least 13-14% weight loss combined with clinical signs of stress and at least one animal in the >MTD dose group needed to be euthanized. Standard hematologic and blood chemistry parameters were examined as needed along with histopathology. The MTDs of EC0746, MTX and AMT were determined to be 2000, 1000, and 50 nmol/kg, respectively. At above the MTD dose level, the main toxicities of EC0746 were similar to those of AMT and MTX, including manifested gastrointestinal distress (diarrhea), swollen muzzle, immunosuppression (bone marrow, thymus), low white-blood-cell count, low platelet count, and infections. […] Overall, EC0746 was approximately 40-fold less toxic than AMT and 2-fold less toxic than MTX on an equimolar basis in these folate-deficient animals; however, its toxicity profile at above MTD levels was not dissimilar from that of AMT and MTX.

[5] = target: folate-receptor-beta positive CHO-FR-β cells (Homo sapiens, UniProt P14207); details: displacement of 3H-folic acid
Sequence of folate-receptor-beta positive CHO-FR-β cells (P14207 17-230): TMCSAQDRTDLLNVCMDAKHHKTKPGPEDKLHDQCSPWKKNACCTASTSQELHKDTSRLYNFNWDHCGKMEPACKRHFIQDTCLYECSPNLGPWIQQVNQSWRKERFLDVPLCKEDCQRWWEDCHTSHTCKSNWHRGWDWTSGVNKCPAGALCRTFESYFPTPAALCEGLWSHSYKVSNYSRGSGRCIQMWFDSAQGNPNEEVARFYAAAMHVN

[6] = system: RAW264.7 cells; assay: XTT cell viability / proliferation assay; assay type: cell-based, murine
Procedure: After 2 h incubation, the drug-containing media were replaced and the cells were allowed to incubate further for 70 h. Four hours prior to the end of incubation, LPS was added to the treated cells at a final concentration of 100 ng/mL. 100 μL of the culture supernatants were collected for TNF-α analysis using a commercial ELISA kit.
RAW264.7 cells in 96-well plates were treated with vehicle (culture medium) or 10-fold serial dilutions of EC0932 without or with 100-fold excess free folate. The drug-containing medium was replaced after 2 h treatment and the cells were allowed to incubate further in standard medium for 70 h. Four hours prior to the end of incubation, LPS was added to the treated cells at a final concentration of 100 ng/mL. […] The cell viability was assessed by adding XTT (2,3-bis(2-methoxy-4-nitro-5-sulfo-phenyl)-2H-tetrazolium-5-carboxanilide) to the remaining medium for an additional 4 h following the manufacturer's instructions (Roche Applied Science, Indianapolis, Ind.).
At 4 h before the end of incubation, LPS (100 ng/ml) was added to the culture medium to stimulate cytokine production.

[7] = single sc dose of EC0746, 500 nmole/kg, rats
[8] = etanercept s.c. 10 mg/kg once every 3 days

Sequence of folate receptors (FR-α) of KB cells (P15328 25-234): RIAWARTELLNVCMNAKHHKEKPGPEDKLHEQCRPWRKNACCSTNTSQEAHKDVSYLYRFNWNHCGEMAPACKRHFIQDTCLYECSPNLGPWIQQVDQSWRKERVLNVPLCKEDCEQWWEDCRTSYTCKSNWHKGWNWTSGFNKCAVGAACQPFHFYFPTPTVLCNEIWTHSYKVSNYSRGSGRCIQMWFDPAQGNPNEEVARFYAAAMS

In the case of Nc1nc2ncc(CNc3ccc(C(=O)N[C@@H](CCC(=O)N[C@H](CC(=O)O)C(=O)N[C@H](CC(=O)O)C(=O)O)C(=O)O)cc3)nc2c(=O)[nH]1 [EC0923], the “Relative affinity to folate receptors (folic acid set as 1)” value (“Relative affinity to folate receptors” below) [1] is reported as 0.84, the “effect on development or severity of AIA” value ([2]; EC0923 alone, 125 μmol/kg/dose biweekly 2 weeks) is reported as “did not have any impact on the development or severity of the disease” and the “dorsal to ventral paw thickness” value ([2]; EC0923 alone, 125 μmol/kg/dose biweekly, arthritic control ~9.8, healthy ~5.8) is reported as ~9.4 mm. The “mean sum of histology scores (maximum 20)” value ([2]; EC0923 alone, 125 μmol/kg/dose biweekly, arthritic control ~15.3) was 14.2.

With Nc1nc(N)c2nc(CNc3ccc(C(=O)N[C@@H](CCC(=O)O)C(=O)O)cc3)cnc2n1 [aminopterin] the “lethality to AIA rats” value ([2]; AMT mixed with free folic acid (1:1), 500 nmol/kg/dose, biweekly) was 100%, the “delay of peak plasma appearance from the EC0746 Cmax” value ([3]; rat, in vivo, sc, 500 nmol/kg) was 30 min and the MTD at 2 weeks ([4]; rat, in vivo, folate deficient rats, sc biweekly for 2 weeks) was < 0.1 µmol/kg.

In the case of N=c1[nH]c(N)nc2ncc(CNc3ccc(C(=O)N[C@@H](CCC(=O)NNC(=O)OCCSSC[C@H](NC(=O)[C@H](CCC(=O)NC[C@H](O)[C@@H](O)[C@H](O)[C@H](O)CO)NC(=O)[C@H](CCC(=O)O)NC(=O)[C@H](CCC(=O)NC[C@H](O)[C@@H](O)[C@H](O)[C@H](O)CO)NC(=O)[C@H](CCC(=O)O)NC(=O)[C@H](CCC(=O)NC[C@H](O)[C@@H](O)[C@H](O)[C@H](O)CO)NC(=O)CC[C@H](NC(=O)c4ccc(NCc5cnc6nc(N)[nH]c(=O)c6n5)cc4)C(=O)O)C(=O)O)C(=O)O)cc3)nc12 [EC0746], the “Relative affinity to folate receptors” value [5] is reported as 0.27, the “Relative affinity to folate receptors” value [1] is reported as 0.5 and the EC50 ([6]; 2 h treatment, then 70-72 h in drug-free medium, read-out: EC50 (ED50), viability/proliferation of RAW264.7 cells, XTT assay) is reported as 300 pM and ~300 pM. For the same compound, the “bioavailability after subcutaneous administration” value ([3]; rats) was “bioavailable after subcutaneous administration”, the “elimination half-life of EC0746” value ([3]; single sc dose of EC0746, 500 nmol/kg, rats) was ~35 min and the “Area Under Curve for free drug (aminopterin+aminopterin hydrazide)” value [3, 7] was 7.3 nmol·min/mL. The “Cmax for free drug (aminopterin+aminopterin hydrazide)” value [3, 7] was 34 nM, the “Cmax for free drug as % of the total dose” value [3, 7] was 9.6% and the “time of Cmax for free drug (aminopterin+aminopterin hydrazide)” value [3, 7] was 60 min. The “therapeutic index (MTD for healthy animals/ED50 in AIA)” value ([4]; 2000/210) was “about 9.5”, the “MTD relative to MTD for free aminopterin, based on ~20% free drug release (0.4 μmol/kg equivalent)” value ([4]; rat, in vivo) was 8 × and the “MTD relative to free aminopterin on a molar basis for total aminopterin” value ([4]; rat, in vivo) was 40 ×. The “gastrointestinal-associated toxicities at MTD dose” value ([4]; rats) was “showed less gastrointestinal-associated toxicities than AMT and MTX”.

In the case of NNC(=O)CC[C@H](NC(=O)c1ccc(NCc2cnc3nc(N)nc(N)c3n2)cc1)C(=O)O [EC0470, aminopterin gamma-hydrazide], the “potency on cell proliferation and LPS-stimulated TNF-α production” value ([6]; 72 h incubations of RAW264.7 macrophages) is reported as “equally potent”, the “delay of peak plasma appearance from the EC0746 Cmax” value ([3]; EC0746-dosed rats, sc 500 nmol/kg) is reported as 30 min and the “Tmax of released base drug in plasma” value ([3]; after single sc dose of EC0746, 500 nmol/kg, rats) is reported as ~60 min.

In the case of CN(Cc1cnc2nc(N)nc(N)c2n1)c1ccc(C(=O)N[C@@H](CCC(=O)O)C(=O)O)cc1 [methotrexate], the “Relative affinity to folate receptors” value [5] is reported as 0.005, the “Relative affinity to folate receptors” value [1] is reported as 0.018 and the “Splenomagly (% increase in spleen weight relative to healthy rats)” value ([2]; oral, 250 nmol/kg biw) is reported as 42 ± 17%. For the same compound, the “% Inhibition in paw edema” value ([2]; oral, 250 nmol/kg biw, Day 24) was 70 ± 5%, the “% Weight loss” value ([2]; oral, 250 nmol/kg biw) was −14 ± 2% and the “% Weight loss” value ([2]; oral, 1650 nmol/kg qw) was −10 ± 2%. For the same compound, the “% Inhibition in paw edema” value ([2]; oral, 1650 nmol/kg qw, calculated based on arthritis scores on Day 24) was 47 ± 10 %, the “Splenomagly (% increase in spleen weight relative to healthy rats)” value ([2]; sc, 250 nmol/kg biw) was 24 ± 3% and the “% Inhibition in paw edema” value ([2]; sc, 250 nmol/kg biw, Day 24) was 78 ± 10%. The “% Weight loss” value ([2]; sc, 250 nmol/kg biw) was −2 ± 4%, the “Splenomagly (% increase in spleen weight relative to healthy rats)” value ([2]; sc, 500 nmol/kg biw) was 20 ± 4% and the “% Inhibition in paw edema” value ([2]; sc, 500 nmol/kg biw, Day 24) was 88 ± 7%. For the same compound, the “% Weight loss” value ([2]; sc, 500 nmol/kg biw) was −2 ± 7%, the “decrease in dorsal to ventral paw thickness” value ([2]; oral MTX 250 nmol/kg biweekly) was 63% and the “decrease in summed histological score” value ([2]; oral MTX 250 nmol/kg biweekly) was 73%. The “reductions in all scored histology parameters vs untreated controls” value ([2]; oral MTX 250 nmol/kg biweekly) was 66-84%, the “blocking of anti-arthritic activity by folate competitor” value ([2]; s.c. MTX 250 nmol/kg/dose with 500-fold excess EC0923) was “not significantly blocked by excess EC0923” and the “effect on development and severity of arthritis” value ([2]; s.c. MTX 250 nmol/kg/dose, 2 weeks) was “significantly improved the development and severity of arthritis”. The “reduction of local (paw) and systemic (spleen) inflammation” value ([2]; sc 300 nmol/kg on days 10, 13, 17, 20) was “similarly active in reducing local (paw) and systemic (spleen) inflammation”.

In the case of etanercept, the “Splenomagly (% increase in spleen weight relative to healthy rats)” value ([2]; sc, 10 mg/kg q3d) is reported as 42 ± 7%, the “% Inhibition in paw edema” value ([2]; sc, 10 mg/kg q3d, Day 24) is reported as 46 ± 9% and the “% Weight loss” value ([2]; sc, 10 mg/kg q3d) is reported as −15 ± 2%. The “decrease in dorsal to ventral paw thickness” value [2, 8] was 40%, the “decrease in summed histological score” value [2, 8] was 43% and the “reduction in bone resorption (histology)” value [2, 8] was 55%. The “reduction in inflammation (histology)” value [2, 8] was 42%.
